“Also recorded” adds a separate entry of the source. Marks after values point to notes of the source that are not given here.

Experiment [1] concerns C57BL/6 mice with UUO surgical ligation. Briefly: Example 1: UUO mice, renal function evaluation (plasma BUN, creatinine). Format: in vivo. As to conditions: Example 1; for Reduction in BUN compared to vehicle, significance in words: Bonferroni post-test, Suplatast Tosylate 60, Iguratimod 15, Lobenzarit 48, Actarit 60, Udenafil 40 mg/kg PO QD; for BUN in comparison to control groups, in words: UUO, male C57BL/6 mice, PO QD days 1-14, doses of Table 1. Here is the method: (§1) Male 9-12 week old C57BL/6 mice of 23-25 grams body weight were used. All mice were acclimated for a minimum of 5 days prior to the start of the study and housed individually in microisolators throughout the study in a 12:12 light-dark cycle on a standard maintenance mouse chow diet (Harlan Teklad 2018) with food and water given ad libitum. Prior to surgery, all mice were weighed for baseline body weight.
(§2) The UUO surgical intervention was performed according to previously described methods known in the art (Le Meur Y et al., Macrophage accumulation at a site of renal inflammation is dependent on the M-CSF/c-fms pathway, J Leukocyte Biol., 72:530-537; 2002).
(§3) All mice were first anesthetized by intraperitoneal injection with a rodent cocktail (ketamine 10 mg/mL and Xyaline 1 mg/mL) in normal saline (10 μL/g body weight). Pedal reflex and movement of the vibrissae were used to determine the state of unconsciousness. A state of unconsciousness was confirmed after a period of about 5 minutes in all animals. All mice were then shaved on the left side of the abdomen. The shaved area was first swabbed with iodine and then swabbed with alcohol. A vertical incision was made through the skin with a #22 scalpel and the skin was then retracted. A further incision of about 2.5 cm was then made through the peritoneum avoiding any major blood vessels. The peritoneum was then retracted and the left kidney was exposed.
(§4) The left kidney was then brought to the surface by hooking the ureter directly beneath the kidney with sterile forceps and gently manipulating the kidney upward. The ureter was ligated at two points directly below the kidney with 5-0 surgical silk with excess suture cut away and discarded post-ligation. The kidney was then gently placed back to its correct anatomical position and the abdomen was lavaged with 1 mL sterile saline to replenish fluid loss. The peritoneum and then skin were sutured with 5-0 Mersilene, and the incision site was gently wiped with iodine. All mice were then placed individually in clean cages that were set on top of a thermal blanket until recovery at about 30-60 minutes later. In some examples, sham surgery was performed as a control by following all steps of the UUO surgical intervention procedure except ligation.
(§5) Following surgery, the mice were divided into 14 individual study groups of 8 mice each and, following post-surgical recovery, administered a once-daily oral treatment for 14 days. The mice in 12 of the 14 study groups (hereafter known as “treatment groups”) had all received the UUO surgical ligation and were treated individually with a distinct pharmacologic compound as set out in Table 1. The mice in 2 of the 14 study groups were treated individually with a pharmaceutically acceptable vehicle with no active ingredient. The pharmaceutically acceptable vehicle in all groups was 0.5% carboxymethyl cellulose (CMC). All mice were sacrificed with CO2 on post-surgical day 15.
The dose selected for the animal studies was determined by taking the maximum known human daily dose, dividing by the average weight of an adult (˜60-70 kg) to get a human mg/kg dose. Then that number was multiplied by 12 to convert to a mouse dose based on conventional dosing tables. See Nair and Jacob, J Basic Clin Pharm March 2016-May 2016, 7(2):27-31.
(§6) Serum collection: A blood sample was then collected from all mice and plasma analyzed for urea nitrogen and creatinine. Plasma was stored at −80° C. for possible future analysis.
(§7) Renal Function Evaluation: Renal function and disease progression was evaluated by BUN (blood urea nitrogen) as previously described. The BUN of each study group consisted of the BUN average of all mice in each study group.

Experiment [2] has the same test system. Briefly: Example 2: UUO mice, renal function evaluation (plasma BUN, creatinine). It is filed as in vivo. Here is the method: (§8) In this example, healthy young female C57BL/6 mice were used for the study. At the commencement of the study, mice were between 9-12 weeks of age, weighing 23-25 g. All the mice were obtained from Charles River Laboratories.
(§9) The mice were maintained in a controlled environment with a temp 70-72° F., humidity 30-70%, with a photo cycle of 12 hours of light and 12 hours of dark. They were provided with Harlan Teklad 2018 standard maintenance mouse chow diet and drinking water ad libitium.
(§10) After five days of acclimatization, the mice were grouped according to their body weight. There were ten groups of ten mice each. Nine groups of ten mice each underwent UUO as described above and the other group of ten mice underwent a sham procedure to serve as a no-surgery control.
(§11) Following surgery, the mice were divided into 10 individual study groups of 10 mice each and, following post-surgical recovery, administered a once-daily oral treatment for 14 days. The mice in 8 of the 10 study groups had all received the UUO surgical ligation and were treated individually with a distinct pharmacologic compound as set out in Table 6. The mice in 2 of the 10 study groups were treated individually with a pharmaceutically acceptable vehicle with no active ingredient. The pharmaceutically acceptable vehicle in all groups was 0.5% carboxymethyl cellulose (CMC). All mice were sacrificed with CO2 on post-surgical day 15.
(§12) The dose selected for the animal studies was determined by taking the maximum known human daily dose, dividing by the average weight of an adult (˜60-70 kg) to get a human mg/kg dose. That number was multiplied by 12 to convert to a mouse dose based on conventional dosing tables. See Nair and Jacob, J Basic Clin Pharm March 2016-May 2016, 7(2):27-31.
as §6
(§13) The data are presented as the mean obtained from Microsoft Excel or GraphPad Prism version 5.00 for Windows (GraphPad Software, San Diego California USA). Data were analyzed using two-way ANOVA using Bonferroni and Tamhane post-tests. Differences between groups were considered significant at p<0.05.
as §7

Experiment [3] can be described thus: Example 2: UUO mice, mean body weight change following surgery. Format: in vivo, C57BL/6 mice. To be noted: UUO, female C57BL/6 mice, PO QD days 1-14, mg/kg: Telmisartan 3, Bemithyl 200, Repirinast 30, Telmisartan+Bemithyl 3+200, Telmisartan+Repirinast 3+30, Cenicriviroc 40, Bromantane 40. The method, then: as §8, §9, §10, §11, §12
Body weight: The body weights were measured on days 1, 4, 7, 10 and 14 using a laboratory balance.
Body weights were measured on post-surgical days 1, 4, 7, 10 and 14 as previously described. The mean body weight change of each study group was calculated using the body weight average of all mice in each study group.

Experiment [4] has as its system C57BL/6 mice with UUO surgical ligation. Kind of experiment: Example 2: UUO mice, kidney weight evaluation. Format: in vivo. To be noted: group mean, UUO, female C57BL/6 mice, PO QD days 1-14, mg/kg: Telmisartan 3, Bemithyl 200, Repirinast 30, Telmisartan+Bemithyl 3+200, Telmisartan+Repirinast 3+30, Cenicriviroc 40, Bromantane 40. The method, then: as §8, §9, §10, §11, §12
Kidney weight: The UUO was then examined in situ to ensure that the surgical ligation ties remained patent. Both the ligated (UUO) and non-ligated kidneys were removed for analysis. Weights of both kidneys were measured using a laboratory balance.
as §13
Kidney Weight Evaluation: Kidney weight, which indicates functional and pathological changes in the kidney, was evaluated by measuring the weight of both the ligated (UUO) and non-ligated kidneys as previously described. The ligated and non-ligated kidney weights of each study group consisted of the respective kidney weight averages of all mice in each study group.

For experiment [5] the test system is unchanged. Kind of experiment: Example 2: UUO mice, renal fibrosis evaluation (Sirius Red histology score). It is filed as in vivo. The method, then: as §8, §9, §10, §11, §12
Histopathology: Formalin-fixed kidney cross-section samples were subjected histopathological scoring with Sirius Red staining, and imaged at a magnification of ×20, using standard techniques. All three sections were stained and evaluated. The analysis was performed by a board-certified veterinarian pathologist. The presence of interstitial damage and severity score was assessed according to the following criteria: 0=normal; 1=light; 2=moderate; 3=severe.
as §13
Renal Fibrosis Evaluation: Renal fibrosis and interstitial damage was evaluated by histochemical staining of renal cross-sections with Sirius Red as previously described. The Histology Score of each study group consisted of the histology score average of all mice in each study group.

The test system is the same in experiment [6]. Briefly: Example 1: UUO mice, renal fibrosis evaluation (Sirius Red histology score). It is filed as in vivo. To be noted: Bemithyl 200, Emoxypine 160, Suplatast Tosylate 60, Udenafil 40, Telmisartan 5 mg/kg PO QD. The method, then: as §1, §2, §3, §4, §5
The dose selected for the animal studies was determined by taking the maximum known human daily dose, dividing by the average weight of an adult (˜60-70 kg) to get a human mg/kg dose. […]
Histopathology: Formalin-fixed kidney cross-section samples were subjected histopathological scoring with Sirius Red staining, and imaged at a magnification of ×20, using standard techniques. All three sections were stained and evaluated. […] The presence of interstitial damage and severity score was assessed according to the following criteria: 0=normal, 1=light, 2=moderate, 3=severe. […]

The mark [7] stands for this setting: Example 2, mg/kg PO QD: Telmisartan 3, Bemithyl 200, Repirinast 30, Telmisartan+Bemithyl 3+200, Telmisartan+Repirinast 3+30, Cenicriviroc 40, Bromantane 40.

In the case of `CC(=O)Nc1ccc(CC(=O)O)cc1` [Actarit, (4-Acetamidophenyl)acetic acid], in experiment [1], the “Reduction in BUN compared to vehicle, significance in words” value (“Reduction in BUN … significance in words” for short) is reported as “significant reductions in BUN”; the “BUN in comparison to control groups, in words” value (shortened to “BUN in comparison”) was “less renal dysfunction and disease progression than the positive control treatment; also recorded: decreased in comparison to the sham surgery control group”.

For the compound `CCCCOCCOc1ccc(-c2ccc3c(c2)/C=C(/C(=O)Nc2ccc([S@@+]([O-])Cc4cncn4CCC)cc2)CCCN3CC(C)C)cc1` [Cenicriviroc], the “Level of BUN compared to vehicle or other agents, in words” value in experiment [2] (setting [7]) was “this reduction was not significant”. For the same compound, in experiment [2] (plasma at sacrifice day 15, group mean, * significant vs vehicle Bonferroni, # Tamhane (p<0.05), UUO, female C57BL/6 mice, PO QD days 1-14, mg/kg: Telmisartan 3, Bemithyl 200, Repirinast 30, Telmisartan+Bemithyl 3+200, Telmisartan+Repirinast 3+30, Cenicriviroc 40, Bromantane 40), the BUN was 19.9 mg/dL. Besides, in experiment [2] (plasma at sacrifice day 15, group mean, UUO, female C57BL/6 mice, PO QD days 1-14, mg/kg: Telmisartan 3, Bemithyl 200, Repirinast 30, Telmisartan+Bemithyl 3+200, Telmisartan+Repirinast 3+30, Cenicriviroc 40, Bromantane 40), the Creatinine turned out to be 0.21 mg/dL. Besides, in experiment [3] (Day 1), the “Mean Body Weight Change Following Surgery, Day 1” value was 0 g. In experiment [3] (Day 4), the “Mean Body Weight Change Following Surgery, Day 4” value was -0.30 g. Moreover, in experiment [3] (Day 7), the “Mean Body Weight Change Following Surgery, Day 7” value was -0.12 g. Besides, the “Mean Body Weight Change Following Surgery, Day 10” value in experiment [3] (Day 10) was 0.18 g. Moreover, in experiment [3] (Day 14), the “Mean Body Weight Change Following Surgery, Day 14” value was determined as 0.82 g. Also, the “Drained Left Kidney” value in experiment [4] (ligated kidney drained) turned out to be 0.1683 g. For the same compound, the “Excised Left Kidney” value in experiment [4] (ligated kidney) is recorded as 0.4091 g. The “Right Kidney (g)” value in experiment [4] (unligated kidney) was 0.1342* g. Moreover, the “Level of kidney fibrosis / histology score compared to vehicle or other agents, in words” value in experiment [5] (setting [7]) is given as “statistically insignificant improvements”. Further, the “Histology Score” value in experiment [5] (Sirius Red, 0=normal, 1=light, 2=moderate, 3=severe, group mean, UUO, female C57BL/6 mice, PO QD days 1-14, mg/kg: Telmisartan 3, Bemithyl 200, Repirinast 30, Telmisartan+Bemithyl 3+200, Telmisartan+Repirinast 3+30, Cenicriviroc 40, Bromantane 40) is on record as 1.63*#. Further, in experiment [5] (from histology score, UUO, female C57BL/6 mice, PO QD days 1-14, mg/kg: Telmisartan 3, Bemithyl 200, Repirinast 30, Telmisartan+Bemithyl 3+200, Telmisartan+Repirinast 3+30, Cenicriviroc 40, Bromantane 40), the “Reduction of fibrosis (%) (versus vehicle)” value is recorded as 32%.

Take `CCc1nc(C)ccc1O` [Emoxypine, 2-Ethyl-6-methyl-3-hydroxypyridine]: the “BUN in comparison” value in experiment [1] is “less renal dysfunction and disease progression than the positive control treatment”. Also, the “Kidney fibrosis / Histology Score, significance and comparison in words” value in experiment [6] is recorded as “the same as the positive control treatment group; also recorded: significant reductions in kidney fibrosis; also recorded: significant reduction in fibrosis compared to vehicle”.

For the compound `CS(=O)(=O)Nc1cc2occ(NC=O)c(=O)c2cc1Oc1ccccc1` [Iguratimod, N-(7-(Methylsulfonamido)-4-oxo-6-phenoxy-4H-chromen-3-yl)formamide], in experiment [1], the “Reduction in BUN … significance in words” value is reported as “significant reductions in BUN”; the “BUN in comparison” value was “less renal dysfunction and disease progression than the positive control treatment; also recorded: decreased in comparison to the sham surgery control group”.

As for `O=C(O)c1ccccc1Nc1cc(Cl)ccc1C(=O)O` [Lobenzarit, 2-[(2-Carboxyphenyl)amino]-4-chlorobenzoic acid], in experiment [1], the “Reduction in BUN … significance in words” value was “significant reductions in BUN”; the “BUN in comparison” value is “less renal dysfunction and disease progression than the positive control treatment; also recorded: decreased in comparison to the sham surgery control group”.

Values taken from patent US12280026B2, “Use of repirinast in the prophylaxis or treatment of renal fibrosis or kidney disease” (ALGERNON PHARMACEUTICALS INC., priority 2018, dated 2025).
